According to patent publication US20140031296A1, “NEW SYNTHETIC PEPTIDES AND THEIR USE” (PERGAMUM AB, priority 2011, published 2014):

What was measured:
[1] = test system: S. aureus (CCUG 1800); assay: Minimal microbicidal concentration (MMC99) assay, S. aureus; type: cell-based; details: 2 hours; for MMC99 μM in 50% SWF: 50% heat inactivated simulated wound fluid
Description: Antimicrobial Activity was Measured as Bactericidal Effect on S. aureus Using Minimal Microbicidal Concentration, MMC99, Assay)
S. aureus (#1800; CCUG, Gothenburg, Sweden) cultured on blood-agar plates [Columbia agar (Oxoid, Basingstoke, UK) supplemented with 5% defibrinated horse blood (National Veterinary Institute (SVA), Uppsala, Sweden)] were transferred to brain heart infusion broth (3.7% BHI; Difco, BD Diagnostics, Franklin Lakes, N.J., USA) and incubated in a shaker at 250 rpm+37° C. over night. The culture was thereafter be diluted 1:10 in fresh BHI broth and incubated for additional two hours to reach log-phase growth. The bacteria were pelleted and suspended in 1% BHI medium (BHI broth diluted 100 times in ultra-pure water) to a concentration of 10^7 bacteria/ml as estimated by measuring optical density at 600 nm. Peptides were serially diluted by two-fold steps from 160 μM to 1.25 μM in 1% BHI medium. The peptides (100 μl) were thereafter incubated with bacteria (5 μl á 10^7 bact./ml) for 2 hours at +37° C. Drops (5 μl) of the suspension were placed on blood agar plates. The blood agar plates were incubated over night at +37° C. The MMC99 values, i.e. the lowest peptide concentration needed to achieve a 99% reduction of viable bacteria, were recorded (Table 3). The concentration of the bacterial suspension used in the assay was confirmed by viable counts on blood agar plates.
S. aureus (#1800; CCUG, Gothenburg, Sweden) cultured on blood-agar plates [Columbia agar (Oxoid, Basingstoke, UK) supplemented with 5% defibrinated horse blood (National Veterinary Institute (SVA), Uppsala, Sweden)] were transferred to brain heart infusion broth (3.7% BHI; Difco, BD Diagnostics, Franklin Lakes, N.J., USA) and incubated in a shaker at 250 rpm+37° C. over night. The culture was thereafter be diluted 1:10 in fresh BHI broth and incubated for additional two hours to reach log-phase growth. The bacteria were pelleted and suspended in 1% BHI medium (BHI broth diluted 100 times in ultra-pure water) to a final concentration of 10^7 bacteria/ml as estimated by measuring optical density at 600 nm.
Peptides were serially diluted by two-fold steps from 400 μM to 0.78 μM in either 1% BHI medium or in 50% heat inactivated simulated wound fluid [SWF, containing 1 part 0.1% peptone (Oxoid, Basingstoke, UK) in saline and 1 part fetal bovine serum, diluted 2 times in ultra-pure water].
The peptides (100 μl) were thereafter incubated with bacteria (5 μl a 10^7 bact./ml) for 2 hours at +37° C. Drops (5 μl) of the suspension were placed on blood agar plates. The blood agar plates were incubated over night at +37° C. The MMC99 values, i.e. the lowest peptide concentration needed to achieve a 99% reduction of viable bacteria were recorded (Table 6). The concentration of the bacterial suspension used in the assay was confirmed by viable counts on blood agar plates.
The antimicrobial effects of the peptides 232 (SEQ ID NO: 78), and 220 (SEQ ID NO:67) were analysed by MMC99 (minimal microbicidal concentration) assay against S. aureus (CCUG 1800), MRSA (CCUG 41879), P. aeruginosa (ATCC 15442), E. coli (CCUG 31246), S. pyogenes (CCUG 4207), P. acnes (CCUG 1794T), S. epidermidis (ATCC12228), K. pneumoniae (ATCC 13883), A. baumannii (ATCC 19606), and C. albicans (ATCC 64549). The peptides were purchased from Biopeptide Company (San Diego, Calif., USA) and Bachem AG (Bubendorf, Switzerland) and results are presented in Table 8A and 8B respectively.
Peptides were serially diluted in two different assay medium, 1% BHI medium (brain-heart infusion medium) or 50% heat inactivated simulated wound fluid (SWF), and thereafter incubated with the microorganisms for 2 hours. Drops of the suspension were placed on blood agar plates. The MMC99 values, i.e. the lowest peptide concentration needed to achieve a 99% reduction of viable microorganisms, were recorded. As presented in Table 8, all the peptides have the ability to kill microorganisms frequently appearing in infections. […]

[2] = test system: TNF-α production in LPS stimulated THP-1 cells; assay: Inhibition of TNF-α production in LPS stimulated THP-1 cells (ELISA); type: cell-based, human; details: mean relative secretion, basal = 0%; for TNF-α at 4 μM peptide / TNF-α at 10 μM peptide: stimulated = 100%; for TNF-α at 40 μM peptide: LPS-stimulated level without peptide = 100%
Description: After 6 hours of incubation at +37° C., 5% CO2 and in a humid atmosphere, the cell supernatants were collected, centrifuged and kept frozen in −20° C. until analyzed for TNF-α content by ELISA (R&D Systems, Minneapolis, Minn., USA). The results are presented as mean relative secretion (%), with stimulated TNF-α level without peptide added set to 100% and basal secretion set to 0% (Table 2).
After 6 hours of incubation, the cell supernatants were collected, centrifuged, and kept frozen in −20° C. until analyzed for TNF-α content by ELISA (R&D Systems, Minneapolis, Minn., USA). The results are presented as mean relative secretion (%), with stimulated TNF-α level without peptide added set to 100% and basal secretion set to 0% (Table 5).

[3] = screen 1, 99% reduction of viable bacteria

Row | Sequence | MMC99 μM in 1% BHI medium ([1]; screen 2) [µM] | MMC99 μM in 50% SWF ([1]; screen 2) [µM] | TNF-α at 4 μM peptide ([2]; screen 2) [%] | TNF-α at 10 μM peptide ([2]; screen 2) [%] | TNF-α at 40 μM peptide ([2]; screen 2) [%] | MMC99 μM in 1% BHI medium [1, 3] [µM] | TNF-α at 40 μM peptide ([2]; screen 1) [%]
1 | QSLARTFKQWARNLRKVL [Peptide 209] | 12.5 | 100 | 88.0 | 68.2 | 23.6 | – | –
2 | QSEATKLFQWQRNLRKVR [Peptide 115] | – | – | – | – | – | >160 | 119
3 | CLNFKRGVRKIR [Peptide 141] | – | – | – | – | – | 20 | 109
4 | WFQWQRNMRKVR [Peptide 128] | – | – | – | – | – | 20 | 104
5 | FQWQRNIRKVR [Peptide 136] | – | – | – | – | – | >160 | 96
6 | SQPEATKCFQWQRNMRKVR [Peptide 101] | – | – | – | – | – | >160 | 116
7 | QSEAEKCFQWQRNMRKVR [Peptide 107] | – | – | – | – | – | >160 | 108
8 | QSLAEKLFQWLRNLRKVR [Peptide 117] | – | – | – | – | – | 2.5 | 13
9 | QSEATKRFQWLRNLRKVLWW [Peptide 212] | 12.5 | 100 | 90.9 | 85.8 | 25.7 | – | –
10 | SEAEKCFQWQRNMRKVR [Peptide 110] | – | – | – | – | – | >160 | 102
11 | RLWRRLMRKVR [Peptide 238] | 12.5 | 100 | 83.9 | 89.2 | 76.5 | – | –
12 | QSEATKCFQWLRNMRKVR [Peptide 113] | – | – | – | – | – | >160 | 22
13 | FQWRPGIRKLR [Peptide 139] | – | – | – | – | – | 45 | 148
14 | FQWQPRIRKVR [Peptide 138] | – | – | – | – | – | >160 | 172
15 | QSEATKRFQWLRNLRKVLGP [Peptide 213] | 25 | 200 | 110.3 | 125.5 | 84.4 | – | –
16 | FQWQRNIRKIR [Peptide 134] | – | – | – | – | – | 40 | 109
17 | PEATKCFQWQRNMRKVR [Peptide 108] | – | – | – | – | – | >160 | 127
18 | CFQWQRKMRKVR [Peptide 143] | – | – | – | – | – | 20 | 153

Row | Sequence | MMC99 μM in 1% BHI medium ([1]; screen 2) [µM] | MMC99 μM in 50% SWF ([1]; screen 2) [µM] | TNF-α at 4 μM peptide ([2]; screen 2) [%] | TNF-α at 10 μM peptide ([2]; screen 2) [%] | TNF-α at 40 μM peptide ([2]; screen 2) [%] | MMC99 μM in 1% BHI medium [1, 3] [µM] | TNF-α at 40 μM peptide ([2]; screen 1) [%]
19 | CWLWRRAMRKVW [Peptide 230] | 25 | 100 | 119.2 | 135.6 | 80.4 | – | –
20 | QTEADKCFQWQRNMRKVR [Peptide 105] | – | – | – | – | – | >160 | 87
21 | QSERKKRFQWLRNLRKVL [Peptide 206] | 12.5 | 100 | 96.9 | 92.9 | 51.0 | – | –
22 | GRRRRSVQWCA [Peptide 223] | 25 | – | – | – | 104.4 | – | –
23 | CFQWQRNMRKVR [Peptide 149] | – | – | – | – | – | 13.3 | 109
24 | QSLATKLFQWRRNLRKVR [Peptide 121] | – | – | – | – | – | 10 | 35
25 | QSLAHSLFQWLRNLRKVR [Peptide 218] | 6.25 | 50 | 81.8 | 55.7 | 9.2 | – | –
26 | FQWQRNMRKVR [Peptide 133] | – | – | – | – | – | >160 | 135
27 | NQPTATKCFQWQRNMRKVR [Peptide 102] | – | – | – | – | – | >160 | 108
28 | RWCKLWRRLMRKVRRL [Peptide 239] | 12.5 | 25 | 65.6 | 56.5 | – | – | –
29 | QSLAEKLFQWLRNRRKVR [Peptide 120] | – | – | – | – | – | 10 | 49
30 | FQWQRRIRKVR [Peptide 124] | – | – | – | – | – | 20 | 128
31 | QSLATKCFQWQRNMRKVR [Peptide 111] | – | – | – | – | – | 20 | 121
32 | WCRWLRKMVKAL [Peptide 248] | 25 | 50 | 87.1 | 80.2 | 24.2 | – | –
33 | CFQWQKRMKRVK [Peptide 148] | – | – | – | – | – | 20 | 132
34 | WCKLWRRLMRKVRR [Peptide 241] | 12.5 | 25 | 92.7 | 57.9 | – | – | –
35 | QSLATKLFQWLRNLRKVR [Peptide 114] | – | – | – | – | – | 2.5 | 15
